In this test the target is T1, Mushroom Tyrosinase (TYR) (Agaricus bisporus, UniProt C7FF04).
T1 construct: gene PPO3
Put plainly: colorimetric L-Dopa oxidation assay, single-concentration inhibition at […]; also retrieved by ligand fishing on paper-immobilized tyrosinase. It is filed as biochemical.

These results are taken from article PMC11397727, “Fast Screening of Tyrosinase Inhibitors in Coreopsis tinctoria Nutt. by Ligand Fishing Based on Paper-Immobilized Tyrosinase” (Molecules, 2024).

T1 sequence (C7FF04 2-392): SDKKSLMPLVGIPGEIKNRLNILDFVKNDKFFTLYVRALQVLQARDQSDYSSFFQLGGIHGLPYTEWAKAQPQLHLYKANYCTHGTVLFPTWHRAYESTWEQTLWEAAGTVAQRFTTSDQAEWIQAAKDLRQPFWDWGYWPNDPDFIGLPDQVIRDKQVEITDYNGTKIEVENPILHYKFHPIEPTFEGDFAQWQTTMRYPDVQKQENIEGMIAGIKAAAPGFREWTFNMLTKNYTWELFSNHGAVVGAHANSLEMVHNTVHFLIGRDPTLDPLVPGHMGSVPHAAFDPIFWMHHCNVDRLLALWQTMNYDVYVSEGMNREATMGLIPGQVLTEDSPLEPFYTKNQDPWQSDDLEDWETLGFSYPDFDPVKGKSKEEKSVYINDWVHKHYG

For orientation: inhibition means the change of the read-out against control, counted positive when it falls. A low value points to a response near the control. `O=C(/C=C/c1ccc(O)c(O)c1)c1ccc(O[C@@H]2O[C@H](CO)[C@@H](O)[C@H](O)[C@H]2O)c(O)c1O` [compound 2, marein] came in with an inhibition at 25 µM of 29.4%.
